Measurements: PubChem BioAssay AID2060361 (Molecular Pharmacology Branch, DTP, NCI, 2025)

Tested on: 463943-066-T-J2-PDC tumor spheroids with HUVEC/MSC, viability
Test: Anticancer human tumor 463943-066-T-J2-PDC patient-derived colon adenocarcinoma cell line growth inhibition [TAK]
Details: for IC50: curve of first compound; for viability, T/C: stronger effect = lower value
Outline: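 Tumor cells were grown as spheroids with HUVEC and hMSC (60:25:15) and treated with targeted agents combined with TAK-243 or ipatasertib. Drugs were tested in half-log steps down from near the clinical Cmax, or from 10 microM where Cmax was unknown.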
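Note: spheroids exposed to drugs for seven days.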
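Throughout, for viability, T/C: 100% = DMSO vehicle control wells.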

For `CC(C)n1nc(-c2ccc3oc(N)nc3c2)c2c(N)ncnc21` + CC(C)NCC(C(=O)N1CCN(c2ncnc3c2C(C)CC3O)CC1)c1ccc(Cl)cc1, the IC50 (second compound 0.3 µM) was over 0.1 µM, the IC50 (second compound 0.949 µM) was over 0.1 µM and the IC50 (second compound 3 µM) was over 0.1 µM. It also gave an IC50 (second compound 9.49 µM) of over 0.1 µM, an IC50 (second compound 30 µM) of over 0.1 µM and a viability, T/C (second compound 0.3 µM, first compound 0.000316 µM) of 112%. For the same molecule, the viability, T/C (second compound 0.3 µM, first compound 0.001 µM) was 102%, the viability, T/C (second compound 0.3 µM, first compound 0.00316 µM) was 105% and the viability, T/C (second compound 0.3 µM, first compound 0.01 µM) was 95.2%. It also gave a viability, T/C (second compound 0.3 µM, first compound 0.0316 µM) of 79.6%, a viability, T/C (second compound 0.3 µM, first compound 0.1 µM) of 74.1% and a viability, T/C (second compound 0.949 µM, first compound 0.000316 µM) of 100%. For the same molecule, the viability, T/C (second compound 0.949 µM, first compound 0.001 µM) was 97.2%, the viability, T/C (second compound 0.949 µM, first compound 0.00316 µM) was 81.8% and the viability, T/C (second compound 0.949 µM, first compound 0.01 µM) was 78.6%. It also gave a viability, T/C (second compound 0.949 µM, first compound 0.0316 µM) of 82.7%, a viability, T/C (second compound 0.949 µM, first compound 0.1 µM) of 78.5% and a viability, T/C (second compound 3 µM, first compound 0.000316 µM) of 95.2%. The viability, T/C (second compound 3 µM, first compound 0.001 µM) was 106%, the viability, T/C (second compound 3 µM, first compound 0.00316 µM) was 93.4% and the viability, T/C (second compound 3 µM, first compound 0.01 µM) was 89.8%. The viability, T/C (second compound 3 µM, first compound 0.0316 µM) was 85.3%, the viability, T/C (second compound 3 µM, first compound 0.1 µM) was 78.2% and the viability, T/C (second compound 9.49 µM, first compound 0.000316 µM) was 103%. The viability, T/C (second compound 9.49 µM, first compound 0.001 µM) was 91.6%, the viability, T/C (second compound 9.49 µM, first compound 0.00316 µM) was 91.4% and the viability, T/C (second compound 9.49 µM, first compound 0.01 µM) was 88.3%. It also gave a viability, T/C (second compound 9.49 µM, first compound 0.0316 µM) of 82.6%, a viability, T/C (second compound 9.49 µM, first compound 0.1 µM) of 74.1% and a viability, T/C (second compound 30 µM, first compound 0.000316 µM) of 86.1%. The viability, T/C (second compound 30 µM, first compound 0.001 µM) was 106%, the viability, T/C (second compound 30 µM, first compound 0.00316 µM) was 83.2% and the viability, T/C (second compound 30 µM, first compound 0.01 µM) was 89%. The viability, T/C (second compound 30 µM, first compound 0.0316 µM) was 82% and the viability, T/C (second compound 30 µM, first compound 0.1 µM) was 74.6%.

`CCCS(=O)(=O)Nc1ccc(F)c(C(=O)c2c[nH]c3ncc(-c4ccc(Cl)cc4)cc23)c1F` + CC(C)NCC(C(=O)N1CCN(c2ncnc3c2C(C)CC3O)CC1)c1ccc(Cl)cc1 gave an IC50 (second compound 0.3 µM) of over 100 µM, an IC50 (second compound 0.949 µM) of over 100 µM and an IC50 (second compound 3 µM) of over 100 µM. The IC50 (second compound 9.49 µM) was over 100 µM, the IC50 (second compound 30 µM) was over 100 µM and the viability, T/C (second compound 0.3 µM, first compound 0.316 µM) was 105%. For the same molecule, the viability, T/C (second compound 0.3 µM, first compound 1 µM) was 102%, the viability, T/C (second compound 0.3 µM, first compound 3.16 µM) was 104% and the viability, T/C (second compound 0.3 µM, first compound 10 µM) was 99.7%. It also gave a viability, T/C (second compound 0.3 µM, first compound 31.6 µM) of 125%, a viability, T/C (second compound 0.3 µM, first compound 100 µM) of 105% and a viability, T/C (second compound 0.949 µM, first compound 0.316 µM) of 108%. For the same molecule, the viability, T/C (second compound 0.949 µM, first compound 1 µM) was 104%, the viability, T/C (second compound 0.949 µM, first compound 3.16 µM) was 103% and the viability, T/C (second compound 0.949 µM, first compound 10 µM) was 106%. The viability, T/C (second compound 0.949 µM, first compound 31.6 µM) was 64.2%, the viability, T/C (second compound 0.949 µM, first compound 100 µM) was 110% and the viability, T/C (second compound 3 µM, first compound 0.316 µM) was 103%. The viability, T/C (second compound 3 µM, first compound 1 µM) was 109%, the viability, T/C (second compound 3 µM, first compound 3.16 µM) was 92.7% and the viability, T/C (second compound 3 µM, first compound 10 µM) was 92%. It also gave a viability, T/C (second compound 3 µM, first compound 31.6 µM) of 88.4%, a viability, T/C (second compound 3 µM, first compound 100 µM) of 104% and a viability, T/C (second compound 9.49 µM, first compound 0.316 µM) of 102%. The viability, T/C (second compound 9.49 µM, first compound 1 µM) was 109%, the viability, T/C (second compound 9.49 µM, first compound 3.16 µM) was 98.2% and the viability, T/C (second compound 9.49 µM, first compound 10 µM) was 89.6%. The viability, T/C (second compound 9.49 µM, first compound 31.6 µM) was 68.6%, the viability, T/C (second compound 9.49 µM, first compound 100 µM) was 109% and the viability, T/C (second compound 30 µM, first compound 0.316 µM) was 87.5%. It also gave a viability, T/C (second compound 30 µM, first compound 1 µM) of 94.7%, a viability, T/C (second compound 30 µM, first compound 3.16 µM) of 91.9% and a viability, T/C (second compound 30 µM, first compound 10 µM) of 88.9%. For the same molecule, the viability, T/C (second compound 30 µM, first compound 31.6 µM) was 25.6% and the viability, T/C (second compound 30 µM, first compound 100 µM) was 95.8%.
